Biological target: Tyrosine-protein kinase ABL1 (Homo sapiens) (UniProt P00519)
Test: Inhibition of Abl (unknown origin) at 1 uM relative to control
Details: not given
Work on `C/C=C/Cn1cc(-c2ccc(C(C)(C)O)cc2OC)c2cc[nH]c2c1=O` yielded an inhibition of 10%.

Biological target: Bromodomain-containing protein 4 (Homo sapiens, UniProt O60885)
Test: Binding affinity to full length BRD4 short isoform (unknown origin) by BROMOscan assay
Details: not given
Work on `C/C=C/Cn1cc(-c2ccc(C(C)(C)O)cc2OC)c2cc[nH]c2c1=O` yielded a Kd of 0.58 µM.

Test system: JeKo-1
Test: Cytotoxicity against human JeKo-1 cells measured after 8 days
Assay type: functional, cell-based
Details: JeKo-1, 192 h
Work on `C/C=C/Cn1cc(-c2ccc(C(C)(C)O)cc2OC)c2cc[nH]c2c1=O` yielded an IC50 of 10.8 µM.

Biological target: Ribosomal protein S6 kinase alpha-2 (Homo sapiens) (UniProt Q15349)
Test: Inhibition of RSK3 (unknown origin) at 1 uM relative to control
Details: not given
With `C/C=C/Cn1cc(-c2ccc(C(C)(C)O)cc2OC)c2cc[nH]c2c1=O` the inhibition was 5.5%.

Test system: not listed separately
Test: Cytotoxicity against human HCC2279 cells measured after 8 days
Assay type: functional, cell-based
Details: HCC2279, 192 h
With `C/C=C/Cn1cc(-c2ccc(C(C)(C)O)cc2OC)c2cc[nH]c2c1=O` the IC50 was 20 µM.

Biological target: Transcription initiation factor TFIID subunit 1 (Homo sapiens, UniProt P21675)
Test: Displacement of biotinylated small-molecule ligand from recombinant His-tagged TAF1 bromodomain 2 (unknown origin) measured after 10 mins by TR-FRET assay
Details: not given
With `C/C=C/Cn1cc(-c2ccc(C(C)(C)O)cc2OC)c2cc[nH]c2c1=O` the IC50 was over 20 µM.

Test system: LNCaP
Test: Cytotoxicity against human LNCaP/Ner cells measured after 8 days
Assay type: functional, cell-based
Details: 192 h
`C/C=C/Cn1cc(-c2ccc(C(C)(C)O)cc2OC)c2cc[nH]c2c1=O` gave an IC50 of 17.8 µM.

Test system: UMC-11
Test: Cytotoxicity against human UMC-11 cells measured after 8 days
Assay type: functional, cell-based
Details: UMC-11, 192 h
`C/C=C/Cn1cc(-c2ccc(C(C)(C)O)cc2OC)c2cc[nH]c2c1=O` gave an IC50 of 20 µM.

Test system: not listed separately
Test: Cytotoxicity against human NCI-H2023 cells measured after 8 days
Assay type: functional, cell-based
Details: NCI-H2023, 192 h
In the case of `C/C=C/Cn1cc(-c2ccc(C(C)(C)O)cc2OC)c2cc[nH]c2c1=O`, the IC50 is reported as 20 µM.

Biological target: Chromatin remodeling regulator CECR2 (Homo sapiens, UniProt Q9BXF3)
Sequence (Q9BXF3 whole entry): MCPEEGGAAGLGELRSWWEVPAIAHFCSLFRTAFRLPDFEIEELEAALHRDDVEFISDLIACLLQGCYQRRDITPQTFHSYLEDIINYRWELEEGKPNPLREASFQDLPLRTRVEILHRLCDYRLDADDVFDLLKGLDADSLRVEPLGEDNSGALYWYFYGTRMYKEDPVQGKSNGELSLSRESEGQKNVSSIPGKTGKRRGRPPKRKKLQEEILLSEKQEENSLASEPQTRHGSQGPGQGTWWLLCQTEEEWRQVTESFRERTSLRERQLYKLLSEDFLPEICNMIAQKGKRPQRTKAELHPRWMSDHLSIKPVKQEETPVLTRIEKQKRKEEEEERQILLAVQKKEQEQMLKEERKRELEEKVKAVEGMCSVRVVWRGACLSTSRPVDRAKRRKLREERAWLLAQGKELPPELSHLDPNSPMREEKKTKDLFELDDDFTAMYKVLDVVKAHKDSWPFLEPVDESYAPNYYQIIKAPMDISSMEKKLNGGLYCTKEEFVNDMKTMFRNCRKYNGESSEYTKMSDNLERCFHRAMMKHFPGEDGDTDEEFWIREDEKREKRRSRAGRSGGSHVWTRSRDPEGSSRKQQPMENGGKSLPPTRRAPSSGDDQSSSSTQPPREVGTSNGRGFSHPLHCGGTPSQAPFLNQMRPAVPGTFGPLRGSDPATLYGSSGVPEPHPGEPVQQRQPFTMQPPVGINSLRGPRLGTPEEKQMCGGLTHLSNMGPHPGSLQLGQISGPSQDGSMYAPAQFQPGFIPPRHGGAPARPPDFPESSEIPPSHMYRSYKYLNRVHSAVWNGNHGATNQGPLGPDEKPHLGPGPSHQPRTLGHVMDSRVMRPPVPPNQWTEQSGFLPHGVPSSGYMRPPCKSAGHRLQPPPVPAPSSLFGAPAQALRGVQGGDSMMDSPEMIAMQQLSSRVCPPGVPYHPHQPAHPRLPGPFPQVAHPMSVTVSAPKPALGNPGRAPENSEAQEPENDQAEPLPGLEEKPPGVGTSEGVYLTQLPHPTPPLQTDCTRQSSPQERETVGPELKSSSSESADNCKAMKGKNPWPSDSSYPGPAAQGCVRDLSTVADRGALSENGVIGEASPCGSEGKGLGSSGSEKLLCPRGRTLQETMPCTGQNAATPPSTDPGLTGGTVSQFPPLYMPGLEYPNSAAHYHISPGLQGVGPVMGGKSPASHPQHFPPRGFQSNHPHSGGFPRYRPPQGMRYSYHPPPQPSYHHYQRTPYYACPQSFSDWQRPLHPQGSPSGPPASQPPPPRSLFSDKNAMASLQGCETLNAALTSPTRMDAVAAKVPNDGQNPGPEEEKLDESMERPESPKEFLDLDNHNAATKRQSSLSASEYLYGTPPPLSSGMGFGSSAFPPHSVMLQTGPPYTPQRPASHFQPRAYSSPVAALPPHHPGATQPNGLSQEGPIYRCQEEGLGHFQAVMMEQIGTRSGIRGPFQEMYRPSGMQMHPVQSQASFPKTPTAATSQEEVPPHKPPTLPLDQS
Test: Displacement of biotinylated small-molecule ligand from recombinant His-tagged CECR2 (unknown origin) measured after 10 mins by TR-FRET assay
Details: not given
In the case of `C/C=C/Cn1cc(-c2ccc(C(C)(C)O)cc2OC)c2cc[nH]c2c1=O`, the IC50 is reported as over 20 µM.

Biological target: T1, Interleukin-1 receptor-associated kinase 4 (Homo sapiens) (UniProt Q9NWZ3)
T1 sequence (whole entry): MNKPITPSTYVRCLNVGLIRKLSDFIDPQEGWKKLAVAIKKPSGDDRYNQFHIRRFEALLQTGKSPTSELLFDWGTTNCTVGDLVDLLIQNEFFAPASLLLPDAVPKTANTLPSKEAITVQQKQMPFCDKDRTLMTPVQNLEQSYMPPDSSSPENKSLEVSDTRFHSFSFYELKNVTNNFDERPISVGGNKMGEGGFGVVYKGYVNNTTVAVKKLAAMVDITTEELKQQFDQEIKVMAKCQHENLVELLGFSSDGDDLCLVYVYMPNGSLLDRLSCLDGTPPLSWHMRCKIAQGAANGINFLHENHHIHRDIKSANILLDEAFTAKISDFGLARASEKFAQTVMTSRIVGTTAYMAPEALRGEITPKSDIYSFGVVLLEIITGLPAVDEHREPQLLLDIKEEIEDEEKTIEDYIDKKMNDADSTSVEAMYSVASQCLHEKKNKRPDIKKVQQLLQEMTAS
Test: Inhibition of IRAK4 (unknown origin) at 1 uM relative to control
Details: not given
With `C/C=C/Cn1cc(-c2ccc(C(C)(C)O)cc2OC)c2cc[nH]c2c1=O` the inhibition was 6%.

Test system: NCI-H1838
Test: Cytotoxicity against human NCI-H1838 cells measured after 8 days
Assay type: functional, cell-based
Details: NCI-H1838, 192 h
`C/C=C/Cn1cc(-c2ccc(C(C)(C)O)cc2OC)c2cc[nH]c2c1=O` showed an IC50 of 20 µM.

Biological target: Serine/threonine-protein kinase pim-1 (Homo sapiens) (UniProt P11309)
Sequence (P11309 whole entry, looked up): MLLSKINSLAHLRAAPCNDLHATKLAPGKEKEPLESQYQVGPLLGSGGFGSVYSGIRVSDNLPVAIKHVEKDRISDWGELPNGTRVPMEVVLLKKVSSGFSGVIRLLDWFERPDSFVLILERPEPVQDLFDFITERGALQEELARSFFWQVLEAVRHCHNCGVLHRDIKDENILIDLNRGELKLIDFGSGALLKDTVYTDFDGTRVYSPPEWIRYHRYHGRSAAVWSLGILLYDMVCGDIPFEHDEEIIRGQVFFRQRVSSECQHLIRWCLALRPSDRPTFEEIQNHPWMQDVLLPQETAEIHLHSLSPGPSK
Test: Inhibition of PIM1 (unknown origin) at 1 uM relative to control
Details: not given
Work on `C/C=C/Cn1cc(-c2ccc(C(C)(C)O)cc2OC)c2cc[nH]c2c1=O` yielded an inhibition of 0.5%.

Test system: not listed separately
Test: Cytotoxicity against human SNU-719 cells measured after 8 days
Assay type: functional, cell-based
Details: SNU-719, 192 h
`C/C=C/Cn1cc(-c2ccc(C(C)(C)O)cc2OC)c2cc[nH]c2c1=O` showed an IC50 of 20 µM.

Test system: BJAB
Test: Cytotoxicity against human BJAB cells measured after 8 days
Assay type: functional, cell-based
Details: 192 h
`C/C=C/Cn1cc(-c2ccc(C(C)(C)O)cc2OC)c2cc[nH]c2c1=O` gave an IC50 of 20 µM.

Biological target: Adrenergic receptor alpha-1 (Rattus norvegicus) (UniProt P15823+P23944+P43140)
Test: Displacement of [3H]-prazosin from rat alpha1 adrenoceptor at 10 uM after 60 mins by scintillation counting analysis relative to control
Assay type: protein assay
Details: not given
With `C/C=C/Cn1cc(-c2ccc(C(C)(C)O)cc2OC)c2cc[nH]c2c1=O` the Activity was 7%.

Test system: SR
Test: Cytotoxicity against human SR cells measured after 8 days
Assay type: functional, cell-based
Details: 192 h
Work on `C/C=C/Cn1cc(-c2ccc(C(C)(C)O)cc2OC)c2cc[nH]c2c1=O` yielded an IC50 of 20 µM.

Test system: MC116
Test: Cytotoxicity against human MC116 cells measured after 8 days
Assay type: functional, cell-based
Details: MC116, 192 h
Compound `C/C=C/Cn1cc(-c2ccc(C(C)(C)O)cc2OC)c2cc[nH]c2c1=O` has an IC50 of 4.97 µM.

Biological target: Protein polybromo-1 (Homo sapiens, UniProt Q86U86)
Sequence (Q86U86 whole entry, the tested form may be a part): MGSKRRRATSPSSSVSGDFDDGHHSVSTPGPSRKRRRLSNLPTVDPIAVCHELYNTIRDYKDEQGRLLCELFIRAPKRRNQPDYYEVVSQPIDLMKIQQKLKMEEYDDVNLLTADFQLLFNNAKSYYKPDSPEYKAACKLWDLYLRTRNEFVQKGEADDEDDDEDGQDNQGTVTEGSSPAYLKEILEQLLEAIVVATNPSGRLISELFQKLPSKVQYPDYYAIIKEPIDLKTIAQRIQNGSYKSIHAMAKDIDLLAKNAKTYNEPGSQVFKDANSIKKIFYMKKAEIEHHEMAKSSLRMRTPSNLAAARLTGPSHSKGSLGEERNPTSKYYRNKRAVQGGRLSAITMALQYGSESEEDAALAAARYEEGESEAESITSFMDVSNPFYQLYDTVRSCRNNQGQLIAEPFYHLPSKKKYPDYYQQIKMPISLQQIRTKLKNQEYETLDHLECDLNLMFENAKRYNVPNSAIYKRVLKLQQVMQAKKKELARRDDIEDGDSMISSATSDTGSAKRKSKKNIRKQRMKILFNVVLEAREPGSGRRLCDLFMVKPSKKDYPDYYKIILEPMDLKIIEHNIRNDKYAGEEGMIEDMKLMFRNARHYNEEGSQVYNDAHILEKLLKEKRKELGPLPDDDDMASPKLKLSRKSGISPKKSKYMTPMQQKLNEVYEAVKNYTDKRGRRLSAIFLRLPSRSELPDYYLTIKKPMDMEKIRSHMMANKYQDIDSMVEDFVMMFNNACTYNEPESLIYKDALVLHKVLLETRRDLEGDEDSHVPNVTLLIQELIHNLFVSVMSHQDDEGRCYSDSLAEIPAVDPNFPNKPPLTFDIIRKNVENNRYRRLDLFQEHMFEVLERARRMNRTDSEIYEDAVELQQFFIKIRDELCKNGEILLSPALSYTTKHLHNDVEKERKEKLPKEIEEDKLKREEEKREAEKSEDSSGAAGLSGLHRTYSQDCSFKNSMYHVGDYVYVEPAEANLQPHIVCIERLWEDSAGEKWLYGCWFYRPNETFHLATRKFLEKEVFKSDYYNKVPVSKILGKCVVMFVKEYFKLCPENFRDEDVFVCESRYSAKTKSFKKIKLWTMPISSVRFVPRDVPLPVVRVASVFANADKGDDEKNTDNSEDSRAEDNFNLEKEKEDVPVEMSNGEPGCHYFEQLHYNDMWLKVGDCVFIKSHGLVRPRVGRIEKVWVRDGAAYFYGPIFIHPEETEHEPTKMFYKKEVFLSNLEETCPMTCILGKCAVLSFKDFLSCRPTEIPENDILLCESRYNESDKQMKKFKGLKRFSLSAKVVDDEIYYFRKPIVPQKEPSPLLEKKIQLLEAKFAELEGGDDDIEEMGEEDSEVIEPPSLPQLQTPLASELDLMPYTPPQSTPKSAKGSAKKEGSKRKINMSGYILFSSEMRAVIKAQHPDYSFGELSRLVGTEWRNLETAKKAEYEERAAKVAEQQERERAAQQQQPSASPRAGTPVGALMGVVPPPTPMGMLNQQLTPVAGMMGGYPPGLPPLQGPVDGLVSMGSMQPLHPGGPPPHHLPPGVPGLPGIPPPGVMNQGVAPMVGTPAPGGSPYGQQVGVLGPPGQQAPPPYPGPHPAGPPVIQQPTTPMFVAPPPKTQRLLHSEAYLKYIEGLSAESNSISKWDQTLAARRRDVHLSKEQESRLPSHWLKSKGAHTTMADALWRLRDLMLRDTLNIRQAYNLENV
Test: Binding affinity to human partial length PBRM1 bromodomain 1 (S178 to E291 residues) expressed in bacterial expression system by BROMOscan assay
Details: not given
Compound `C/C=C/Cn1cc(-c2ccc(C(C)(C)O)cc2OC)c2cc[nH]c2c1=O` has a Kd of 7.6 µM.

Test system: AMO1
Test: Cytotoxicity against human AMO1 cells measured after 8 days
Assay type: functional, cell-based
Details: AMO1, 192 h
Work on `C/C=C/Cn1cc(-c2ccc(C(C)(C)O)cc2OC)c2cc[nH]c2c1=O` yielded an IC50 of 20 µM.

Test system: HCC38
Test: Cytotoxicity against human HCC38 cells measured after 8 days
Assay type: functional, cell-based
Details: HCC38, 192 h
With `C/C=C/Cn1cc(-c2ccc(C(C)(C)O)cc2OC)c2cc[nH]c2c1=O` the IC50 was 20 µM.

Biological target: T2, Adenosine receptor A1 (Homo sapiens) (UniProt P30542)
T2 sequence (whole entry): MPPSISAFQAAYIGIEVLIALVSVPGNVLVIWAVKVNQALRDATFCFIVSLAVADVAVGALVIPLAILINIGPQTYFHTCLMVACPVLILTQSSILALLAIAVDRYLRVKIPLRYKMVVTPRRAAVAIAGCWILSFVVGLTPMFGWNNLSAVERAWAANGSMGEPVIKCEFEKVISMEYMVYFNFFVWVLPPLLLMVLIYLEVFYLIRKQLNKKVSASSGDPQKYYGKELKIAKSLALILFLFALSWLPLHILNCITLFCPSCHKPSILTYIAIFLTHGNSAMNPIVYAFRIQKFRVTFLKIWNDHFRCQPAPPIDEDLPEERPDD
Test: Displacement of [3H]-DPCPX from human recombinant adenosine A1 receptor at 10 uM after 60 mins by scintillation counting analysis relative to control
Details: not given
With `C/C=C/Cn1cc(-c2ccc(C(C)(C)O)cc2OC)c2cc[nH]c2c1=O` the Activity was 8%.

Test system: HCC95
Test: Cytotoxicity against human HCC95 cells measured after 8 days
Assay type: functional, cell-based
Details: HCC95, 192 h
In the case of `C/C=C/Cn1cc(-c2ccc(C(C)(C)O)cc2OC)c2cc[nH]c2c1=O`, the IC50 is reported as 20 µM.

Biological target: Histone acetyltransferase KAT2B (Homo sapiens, UniProt Q92831)
Sequence (Q92831 whole entry, the tested form may be a part): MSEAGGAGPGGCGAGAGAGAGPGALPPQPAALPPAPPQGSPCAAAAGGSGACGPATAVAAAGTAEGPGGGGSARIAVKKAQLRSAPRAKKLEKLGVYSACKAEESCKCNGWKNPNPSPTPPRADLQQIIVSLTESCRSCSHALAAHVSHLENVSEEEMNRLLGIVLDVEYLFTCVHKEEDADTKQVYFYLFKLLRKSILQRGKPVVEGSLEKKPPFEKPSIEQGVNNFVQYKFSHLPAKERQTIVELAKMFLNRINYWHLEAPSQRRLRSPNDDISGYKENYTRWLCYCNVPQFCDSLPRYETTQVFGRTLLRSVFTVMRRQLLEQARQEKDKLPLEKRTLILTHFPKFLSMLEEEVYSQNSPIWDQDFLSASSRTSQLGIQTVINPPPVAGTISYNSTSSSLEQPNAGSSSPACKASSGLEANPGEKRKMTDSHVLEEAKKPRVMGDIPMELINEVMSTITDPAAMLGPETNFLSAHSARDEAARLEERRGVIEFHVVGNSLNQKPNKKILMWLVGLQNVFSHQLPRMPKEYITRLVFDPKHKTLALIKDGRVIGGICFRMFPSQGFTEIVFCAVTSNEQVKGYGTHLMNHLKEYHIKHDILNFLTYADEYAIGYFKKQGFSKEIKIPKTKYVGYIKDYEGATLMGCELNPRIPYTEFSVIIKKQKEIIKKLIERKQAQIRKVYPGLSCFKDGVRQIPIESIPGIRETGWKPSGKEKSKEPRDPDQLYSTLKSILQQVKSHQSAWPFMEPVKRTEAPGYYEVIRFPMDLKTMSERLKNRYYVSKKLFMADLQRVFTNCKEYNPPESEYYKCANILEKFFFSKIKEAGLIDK
Test: Binding affinity to human partial length PCAF (G715 to D831 residues) expressed in bacterial expression system by BROMOscan assay
Details: not given
Compound `C/C=C/Cn1cc(-c2ccc(C(C)(C)O)cc2OC)c2cc[nH]c2c1=O` has a Kd of over 10 µM.

Test system: NCI-H82
Test: Cytotoxicity against human NCI-H82 cells measured after 8 days
Assay type: functional, cell-based
Details: NCI-H82, 192 h
For `C/C=C/Cn1cc(-c2ccc(C(C)(C)O)cc2OC)c2cc[nH]c2c1=O`, the IC50 was 20 µM.

Test system: COLO-678
Test: Cytotoxicity against human COLO-678 cells measured after 8 days
Assay type: functional, cell-based
Details: COLO-678, 192 h
In the case of `C/C=C/Cn1cc(-c2ccc(C(C)(C)O)cc2OC)c2cc[nH]c2c1=O`, the IC50 is reported as 20 µM.

Organism: Rattus norvegicus
Test: Displacement of [125I]alpha-dendrotoxin from rat brain voltage-gated K channel at 10 uM after 60 mins by scintillation counting analysis relative to control
Details: not given
Compound `C/C=C/Cn1cc(-c2ccc(C(C)(C)O)cc2OC)c2cc[nH]c2c1=O` has an Activity of -1%.

Test system: DB
Test: Cytotoxicity against human DB cells measured after 8 days
Assay type: functional, cell-based
Details: 192 h
Compound `C/C=C/Cn1cc(-c2ccc(C(C)(C)O)cc2OC)c2cc[nH]c2c1=O` has an IC50 of 16.9 µM.

Test system: HT
Test: Cytotoxicity against human HT cells measured after 8 days
Assay type: functional, cell-based
Details: 192 h
`C/C=C/Cn1cc(-c2ccc(C(C)(C)O)cc2OC)c2cc[nH]c2c1=O` showed an IC50 of 20 µM.

Test system: MDA-MB-436
Test: Cytotoxicity against human MDA-MB-436 cells measured after 8 days
Assay type: functional, cell-based
Details: MDA-MB-436, 192 h
With `C/C=C/Cn1cc(-c2ccc(C(C)(C)O)cc2OC)c2cc[nH]c2c1=O` the IC50 was 20 µM.

Test system: HPAC
Test: Cytotoxicity against human HPAC cells measured after 8 days
Assay type: functional, cell-based
Details: 192 h
For `C/C=C/Cn1cc(-c2ccc(C(C)(C)O)cc2OC)c2cc[nH]c2c1=O`, the IC50 was 20 µM.

Test system: NCI-H1581
Test: Cytotoxicity against human NCI-H1581 cells measured after 8 days
Assay type: functional, cell-based
Details: NCI-H1581, 192 h
`C/C=C/Cn1cc(-c2ccc(C(C)(C)O)cc2OC)c2cc[nH]c2c1=O` showed an IC50 of 20 µM.

Biological target: Dual specificity mitogen-activated protein kinase kinase 1 (Homo sapiens) (UniProt Q02750)
Sequence (Q02750 whole entry): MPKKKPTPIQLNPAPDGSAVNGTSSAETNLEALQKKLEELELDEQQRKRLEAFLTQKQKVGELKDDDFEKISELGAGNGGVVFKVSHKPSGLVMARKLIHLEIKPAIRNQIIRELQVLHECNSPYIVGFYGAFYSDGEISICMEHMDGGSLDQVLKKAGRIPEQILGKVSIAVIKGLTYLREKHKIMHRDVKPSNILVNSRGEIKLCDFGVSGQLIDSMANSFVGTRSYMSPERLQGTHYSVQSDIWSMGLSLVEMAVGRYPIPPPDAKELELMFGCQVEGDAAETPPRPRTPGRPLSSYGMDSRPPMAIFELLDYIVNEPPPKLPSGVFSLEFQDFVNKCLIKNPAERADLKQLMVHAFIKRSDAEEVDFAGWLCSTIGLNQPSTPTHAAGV
Test: Inhibition of MEK1 (unknown origin) at 1 uM relative to control
Details: not given
Compound `C/C=C/Cn1cc(-c2ccc(C(C)(C)O)cc2OC)c2cc[nH]c2c1=O` has an inhibition of 1%.

Test system: Calu-3
Test: Cytotoxicity against human Calu-3 cells measured after 8 days
Assay type: functional, cell-based
Details: Calu-3, 192 h
For `C/C=C/Cn1cc(-c2ccc(C(C)(C)O)cc2OC)c2cc[nH]c2c1=O`, the IC50 was 20 µM.

Test system: LNCaP
Test: Cytotoxicity against human LNCaP clone FGC cells measured after 8 days
Assay type: functional, cell-based
Details: 192 h
In the case of `C/C=C/Cn1cc(-c2ccc(C(C)(C)O)cc2OC)c2cc[nH]c2c1=O`, the IC50 is reported as 19.9 µM.

Test system: Hs 294T
Test: Cytotoxicity against human Hs294T cells measured after 8 days
Assay type: functional, cell-based
Details: 192 h
In the case of `C/C=C/Cn1cc(-c2ccc(C(C)(C)O)cc2OC)c2cc[nH]c2c1=O`, the IC50 is reported as 20 µM.

Biological target: 5-hydroxytryptamine receptor 4 (Homo sapiens) (UniProt Q13639)
Sequence (Q13639 whole entry): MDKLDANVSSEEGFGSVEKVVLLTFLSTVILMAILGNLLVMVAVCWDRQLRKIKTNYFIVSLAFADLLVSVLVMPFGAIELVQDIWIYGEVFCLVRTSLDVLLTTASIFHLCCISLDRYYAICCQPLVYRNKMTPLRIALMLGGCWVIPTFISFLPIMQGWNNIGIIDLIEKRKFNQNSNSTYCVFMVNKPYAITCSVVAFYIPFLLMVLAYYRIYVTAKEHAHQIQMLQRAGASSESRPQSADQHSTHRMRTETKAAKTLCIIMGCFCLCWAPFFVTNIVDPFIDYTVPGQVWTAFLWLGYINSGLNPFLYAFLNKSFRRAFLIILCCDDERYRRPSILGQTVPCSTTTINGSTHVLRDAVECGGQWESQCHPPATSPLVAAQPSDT
Test: Inhibition of human 5HT4e at 10 uM relative to control
Details: not given
With `C/C=C/Cn1cc(-c2ccc(C(C)(C)O)cc2OC)c2cc[nH]c2c1=O` the inhibition was -1%.

— ChEMBL document CHEMBL5260810, “Inhibition of bromodomain-containing protein 9 for the prevention of epigenetically-defined drug resistance” (Bioorg Med Chem Lett, 2017)
